Measured values reported in patent publication EP1094724B1, “USE OF A PHENOL OXIDISING ENZYME IN THE TREATMENT OF TOBACCO” (priority 1998, dated 2000).

System: Myceliopthora thermophila laccase (MtL)
Assay: MtL treatment of tobacco extract, quantitative HPLC of chlorogenic acid, rutin and scopoletin
Format: biochemical
Details: detection limit CA 2.43, R 1.55, S 0.50 µg/ml
Experimental: The content of phenolic compounds is analysed by HPLC according to the procedure described below: • Liquid chromatographic system: E.g. Shimadzu SCL-6B System Controller, and two LC-6A Liquid Chromatograph (pumps) or Waters model 600 E • Injector: Shimadzu SIL 6B Autoinjector or Waters 715 Ultra Wisp. UV detector: Shimadzu SPD-6A Photodiode Array UV-VIS detector or Waters Model 481 • Software: CLASS LC10 / CLASS-MXA or Maxima 820 • Column: Supelcosil™ LC-18 25 cm x 4.6 mm (Supelco, #5-8298) or µ Bondapack C198 stainless steel column, 30 cm x 4 mm i.d., 10 µm particle size. • Guard column: none or Guard-Pak from Waters packed with the same material. • Temperature: Ambient • Mobile phase flow: 1.3 ml/min • Injection volume: 20µl • Wavelength: 350 nm • Eluent: Binary gradient (linear) mixture of A: KH2PO4 (28.4 g in 2000 ml de-mineralised water) and B: methanol (please see table 1 and figure 1). The eluent is filtered through a 0.45 µm filter and degassed before use.
Prior to HPLC analysis, the samples were filtered through a 0.45 µm filter or smaller, e.g. a sterile Sartorius Minisart 0.45 µm filter (#16555) or a Millipore Millex-GS 0.22 µm (#SBGS 0 25 SB) to remove the haze/precipitate normally formed during enzyme treatment. Normally, no dilution of the extract/sample was made before HPLC analysis.
For quantitative measurements the following standards were made in the extracting solution: Chlorogenic acid: 20 mg/ml; Scopoletin: 1 mg/ml; Rutin: 0.75 mg/ml.
The mixture was intensely aerated during the reaction time.
"Raw tobacco" was extracted according to the procedure described in Example 8. […] After enzyme treatment, bentonite was added at a concentration of 1 g/L at the temperature of the extract after the laccase treatment (50°C) for 10 minutes. The slurry was clarified at a flow rate of 1 L/min using a continuous centrifuge. The enzyme treated and clarified extract was then concentrated 40 fold by means of reverse osmosis and evaporation. The concentrate was then recombined with the "tobacco residue" by spraying back the extract onto the tobacco residue, and finally dried, resulting in "recombined tobacco material".
Samples of tobacco before and after extraction and recombination with the tobacco extract was analysed for nicotine, reducing sugars, total sugars by means of an Auto Analyzer according to the method previously described, and analysed for chlorogenic acid, rutin, and scopoletin by means of HPLC according the method previously described. The tobacco extract before and after MtL and bentonite treatment was analysed for chlorogenic acid, rutin, and scopoletin by means of HPLC according the method previously described.

[1] = 5 min, 52.0 °C, 4.1 µg/ml MtL, 3.0 kg/100 litre scale
[2] = 5 minutes, 56.2 °C, MtL, 6.0 kg/200 litre scale
[3] = 10 min, 50.3 °C, 4.1 µg/ml MtL, 3.0 kg/100 litre scale
[4] = 10 minutes, 55.8 °C, MtL, 6.0 kg/200 litre scale
[5] = 15 min, 48.8 °C, 4.1 µg/ml MtL, 3.0 kg/100 litre scale
[6] = 15 minutes, 55.2 °C, MtL, 6.0 kg/200 litre scale
[7] = 20 min, 47.4 °C, 4.1 µg/ml MtL, 3.0 kg/100 litre scale
[8] = 20 minutes, 54.5 °C, MtL, 6.0 kg/200 litre scale
[9] = 30 min, 45.0 °C, 4.1 µg/ml MtL, 3.0 kg/100 litre scale
[10] = 30 minutes, 53.5 °C, MtL, 6.0 kg/200 litre scale
[11] = 45 min, 41.9 °C, 4.1 µg/ml MtL, 3.0 kg/100 litre scale
[12] = 45 minutes, 52.2 °C, MtL, 6.0 kg/200 litre scale
[13] = 60 min, 39.1 °C, 4.1 µg/ml MtL, 3.0 kg/100 litre scale
[14] = 60 minutes, 51.0 °C, MtL, 6.0 kg/200 litre scale
[15] = Extract after MtL treatment, 4.1 µg/ml MtL, 20 minutes at 55°C, intense aeration
[16] = Extract after MtL- and bentonite treatment and separation by centrifugation, 4.1 µg/ml MtL 20 minutes at 55°C, bentonite 1 g/L 10 minutes at 50°C

Row | Compound | Content in tobacco extract during MtL treatment [1] [mg/mL] | Content in tobacco extract during MtL treatment [2] [mg/mL] | Content in tobacco extract during MtL treatment [3] | Content in tobacco extract during MtL treatment [4] [mg/mL] | Content in tobacco extract during MtL treatment [5] | Content in tobacco extract during MtL treatment [6] | Content in tobacco extract during MtL treatment [7] | Content in tobacco extract during MtL treatment [8] | Content in tobacco extract during MtL treatment [9] | Content in tobacco extract during MtL treatment [10] | Content in tobacco extract during MtL treatment [11] | Content in tobacco extract during MtL treatment [12] | Content in tobacco extract during MtL treatment [13] | Content in tobacco extract during MtL treatment [14] | phenolic compound content of tobacco extract [15] | phenolic compound content of tobacco extract [16]
1 | O=C(C=Cc1ccc(O)c(O)c1)OC1CC(O)(C(=O)O)CC(O)C1O (centres unmarked) [CA, 3-[[3-(3,4-Dihydroxyphenyl)-1-oxo-2-propenyl]oxy]1,4,5-trihydroxycyclohexanecarboxylic acid] | 0.036 | 0.0166 | BDL | 0.0138 | BDL | BDL | BDL | BDL | BDL | BDL | BDL | BDL | BDL | BDL | BDL | BDL
2 | COc1cc2ccc(=O)oc2cc1O [S, 7-Hydroxy-6-methoxy-2H-1-benzopyran-2-one] | 0.0063 | 0.0101 | 0.0027 mg/mL | 0.0090 | 0.0014 mg/mL | 0.0078 mg/mL | 0.0010 mg/mL | 0.0054 mg/mL | 0.0010 mg/mL | 0.0043 mg/mL | 0.0010 mg/mL | 0.0020 mg/mL | 0.0010 mg/mL | 0.0019 mg/mL | 0.0047 mg/mL | 0.0017 mg/mL
